Measurements published in US12312343B2, “Rotomeric isomers of 4-alkyl-5-heteroaryl-3H-1,2-dithiole-3-thiones” (ST IP HOLDING AG, priority 2018, dated 2025).

How the values were obtained:
[1] = test system: ALOX12; assay: Human oxidative stress RT2 Profiler PCR array in HGEPp cells: ALOX12; type: cell-based; conditions: 100 μg/ml, 24 h, RT-PCR ΔΔCt
Experimental: (§1) RT-PCR was performed on an iCycler.

[2] = test system: SOD1; assay: Human oxidative stress RT2 Profiler PCR array in HGEPp cells: SOD1; type: cell-based; conditions: 100 μg/ml, 24 h, RT-PCR ΔΔCt
Experimental: as §1

[3] = test system: GPX1; assay: Human oxidative stress RT2 Profiler PCR array in HGEPp cells: GPX1; type: cell-based; conditions: 100 μg/ml, 24 h, RT-PCR ΔΔCt
Experimental: as §1

[4] = test system: NQO1; assay: Human oxidative stress RT2 Profiler PCR array in HGEPp cells: NQO1; type: cell-based; conditions: 100 μg/ml, 24 h, RT-PCR ΔΔCt
Experimental: as §1

[5] = test system: GCLC; assay: Human oxidative stress RT2 Profiler PCR array in HGEPp cells: GCLC; type: cell-based; conditions: 100 μg/ml, 24 h, RT-PCR ΔΔCt
Experimental: as §1

[6] = test system: GSTP1; assay: Human oxidative stress RT2 Profiler PCR array in HGEPp cells: GSTP1; type: cell-based; conditions: 100 μg/ml, 24 h, RT-PCR ΔΔCt
Experimental: as §1

[7] = test system: GCLM; assay: Human oxidative stress RT2 Profiler PCR array in HGEPp cells: GCLM; type: cell-based; conditions: 100 μg/ml, 24 h, RT-PCR ΔΔCt
Experimental: as §1

[8] = test system: GTF2i; assay: Human oxidative stress RT2 Profiler PCR array in HGEPp cells: GTF2i; type: cell-based; conditions: 100 μg/ml, 24 h, RT-PCR ΔΔCt
Experimental: as §1

[9] = test system: PTGS1; assay: Human oxidative stress RT2 Profiler PCR array in HGEPp cells: PTGS1; type: cell-based; conditions: 100 μg/ml, 24 h, RT-PCR ΔΔCt
Experimental: as §1

[10] = test system: UCP2; assay: Human oxidative stress RT2 Profiler PCR array in HGEPp cells: UCP2; type: cell-based; conditions: 100 μg/ml, 24 h, RT-PCR ΔΔCt
Experimental: as §1

[11] = test system: HGEPp cells; conditions: 100 μg/mL pretreatment; taken from PCT/IB2017/001312; cited from earlier work

## Cc1c(-c2cnccn2)ssc1=S [ST-617-API, 4-methyl-5-(pyrazin-2-yl)-3H-1,2-dithiole-3-thione, reference compound]
[1]
  ALOX12 up regulation relative fold change: 6.15 fold
[2]
  SOD1 up regulation relative fold change: 2.46 fold
[3]
  GPX1 up regulation relative fold change: 4.88 fold
[4]
  NQO1 up regulation relative fold change: 2.95 fold
[5]
  GCLC up regulation relative fold change: 4.14 fold
[6]
  GSTP1 up regulation relative fold change: 2.17 fold
[7]
  GCLM up regulation relative fold change: 3.03 fold
[8]
  GTF2i down regulation relative fold change: 0.34 fold
[9]
  PTGS1 down regulation relative fold change: 0.22 fold
[10]
  UCP2 down regulation relative fold change: 0.18 fold
[11]
  ROS level (optical density, Normal = 100% baseline), as reported in PCT/IB2017/001312: 124%
